Reference: patent publication US11802127B2, “3,4-dihydro-2,7-naphthyridine-1,6(2H,7H)-diones as MEK inhibitors” (Pfizer Inc., priority 2021, dated 2023)
Where a name gives a salt, the structure may show the parent alone.

What was measured:
[1] = system: ERK1/2(Thr202/Tyr204) phosphorylation (MEK-dependent) in A375 cells; assay: Cellular Phospho-p44/42 MAPK (Erk1/2) (Thr202/Tyr204) Assay; type: cell-based; conditions: Homo sapiens, A-375, 1-hour incubation, pERK1/2 (Thr202/Tyr204) In-Cell Western normalized to GAPDH
Method: Inhibition of ERK1/2(Thr202/Tyr204) phosphorylation was determined by the following cellular assay, which comprises incubating cells with a compound for 1 hour and quantifying pERK signal by In-Cell Western on fixed cells and normalizing to GAPDH signal. A375 cells were obtained from the ATCC and grown in DMEM supplemented with 10% fetal bovine serum, penicillin/streptomycin, Glutamax®, non-essential amino acids, and sodium pyruvate. Cells were plated in 96-well plates at 30,000 cells/well and allowed to attach overnight at 37° C./5% CO2. Cells were treated with compounds prepared as a 10-point, 1:3 dilution series (range: 20 μM-0.05 nM; maximum concentration varied from 20 μM-1 μM), with a final DMSO concentration of 0.5%. Control wells contained either 0.5% DMSO alone (no inhibition control) or 1 μM of a potent control compound (complete inhibition control). After a 1-hour incubation, cells were fixed in 3.7% formaldehyde in dPBS (Dulbecco's phosphate-buffered saline) at room temperature for 20 minutes. Cells were then washed with dPBS and permeabilized in 100% MeOH at room temperature for 10 minutes. Following permeabilization, cells were washed in dPBS and incubated in LI-COR Blocking Buffer (LI-COR Biosciences, Cat #927-40000) for 1 hour or longer. Plates were then incubated with an antibody specific for the MEK-dependent ERK1/2 phosphorylation sites, threonine 202 and tyrosine 204 (Cell Signaling Technologies; Cat #9101), downstream of MEK in the MAP kinase signal transduction pathway, as well as GAPDH (Millipore; Cat #MAB374). pErk1/2 (Thr202/Tyr204) antibody was diluted in LI-COR blocking buffer containing 0.05% Tween-20 at 1:250; GAPDH was diluted at 1:2,500. The plates were incubated overnight at 4° C. After washing with PBS/0.05% Tween-20, the cells were incubated with fluorescently-labeled secondary antibodies (Anti-rabbit-Alexa Flour680, Invitrogen Cat #A21109; Anti-mouse-IRDye800CW, LI-COR Biosciences Cat #926-32210, both at 1:1000 dilution) for 1 hour. Cells were then washed, as above, and analyzed for fluorescence at both 680 and 800 nm wavelengths using the Odyssey CLx Infrared Imaging System (LI-COR Biosciences). Phosphorylated Erk1/2 (Thr202/Tyr204) signal was normalized to GAPDH signal for each well.

[2] = MDR1 LLC-PK1 and BCRP MDCKII Permeability Assay: permeability coefficient (Papp); type: in vitro ADME; conditions: MDCK, test article 1 μM, 37° C.
Method: (§1) Both LLC-PK1 and MDR1 transfected LLC-PK1 cells were cultured and plated according to manufacturer's recommendations with the exception that the passage media contained only 2% fetal bovine serum to extend passage time out to seven days.
(§2) BCRP transfected MDCKII canine P-gp knockout cell line was cultured and plated according to manufacturer's recommendations.
(§3) Both positive and negative controls were used to assess functionality of P-gp or BCRP efflux in the assays. Stock solutions for assay controls and the test article were prepared in DMSO for final test concentrations of 10 and 1 μM, respectively. Final organic concentration in the assay was 1%. All dosing solutions contained 10 μM lucifer yellow to monitor LLC-PK1 or MDCKII cell monolayer integrity.
(§4) For the apical to basolateral determination (A to B), 75 μL of the test article in transport buffer were added to the apical side of the individual transwells and 250 μL of basolateral media, without compound or lucifer yellow, were added to each well. For the basolateral to apical determination (B to A), 250 μL of test article in transport buffer were added to each well and 75 μL transport buffer, without compound or lucifer yellow, were added to each transwell. All tests were performed in triplicate, and each compound was tested for both apical to basolateral and basolateral to apical transport. The plates were incubated for 2 hours on a Lab-Line Instruments Titer Orbital Shaker (VWR, West Chester, PA) at 50 rpm and 37° C. with 5% CO2. All culture plates were removed from the incubator and 50 μL of media were removed from the apical and basolateral portion of each well and added to 150 μL of 1 μM labetalol in 2:1 acetonitrile (acetonitrile): H2O, v/v.
(§5) The plates were read using a Molecular Devices (Sunnyvale, CA) Gemini Fluorometer to evaluate the lucifer yellow concentrations at excitation/emission wavelengths of 425/535 nm. These values were accepted when found to be below 2% for apical to basolateral and 5% basolateral to apical flux across the MDR1-transfected LLC-PK1 or BCRP-transfected MDCKII cell monolayers. The plates were sealed and the contents of each well analyzed by LC-MS/MS. The compound concentrations were determined from the ratio of the peak areas of the compound to the internal standard (labetalol) in comparison to the dosing solution.
(§6) The LC-MS/MS system was comprised of an HTS-PAL autosampler (Leap Technologies, Carrboro, NC), an HP1200 HPLC (Agilent, Palo Alto, CA), and a MDS Sciex 4000 Q Trap system (Applied Biosystems, Foster City, CA). […] The total run time, including re-equilibration, for a single injection was 1.2 minutes. Mass spectrometric detection of the analytes was accomplished using the ion spray positive mode. Analyte responses were measured by multiple reaction monitoring (MRM) of transitions unique to each compound (the protonated precursor ion and selected product ions for each test article and m/z 329 to m/z 162 for labetalol, the internal standard).

P-gp (MDR1) = target: T1, P-gp (MDR1) (Homo sapiens, UniProt P08183); assay: Efflux ratio in MDR1 transfected LLC-PK1 cells; type: in vitro ADME; conditions: pig, Papp(B−A)/Papp(A−B)
T1 construct: expressed in transfected cells; host or cells: LLC-PK1 (porcine kidney) cells transfected with MDR1
Method: as §1, §3, §4, §5, §6
(§7) An efflux ratio is calculated from the mean apical to basolateral (A−B) Papp data and basolateral to apical (B−A) Papp data: Efflux ratio=Papp(B−A)/Papp(A−B)

BCRP (hBCRP) = target: T2, BCRP (hBCRP) (Homo sapiens, UniProt Q9UNQ0); assay: Efflux ratio in BCRP transfected MDCKII canine P-gp knockout cells; type: in vitro ADME; conditions: Papp(B−A)/Papp(A−B), read-out: Efflux ratio MDCKII-hBCRP knock-in,canine pg-P KO
T2 construct: expressed in transfected cells; host or cells: MDCKII (canine kidney) cells, canine P-gp knockout, transfected with BCRP
T2 sequence (Q9UNQ0 1-655): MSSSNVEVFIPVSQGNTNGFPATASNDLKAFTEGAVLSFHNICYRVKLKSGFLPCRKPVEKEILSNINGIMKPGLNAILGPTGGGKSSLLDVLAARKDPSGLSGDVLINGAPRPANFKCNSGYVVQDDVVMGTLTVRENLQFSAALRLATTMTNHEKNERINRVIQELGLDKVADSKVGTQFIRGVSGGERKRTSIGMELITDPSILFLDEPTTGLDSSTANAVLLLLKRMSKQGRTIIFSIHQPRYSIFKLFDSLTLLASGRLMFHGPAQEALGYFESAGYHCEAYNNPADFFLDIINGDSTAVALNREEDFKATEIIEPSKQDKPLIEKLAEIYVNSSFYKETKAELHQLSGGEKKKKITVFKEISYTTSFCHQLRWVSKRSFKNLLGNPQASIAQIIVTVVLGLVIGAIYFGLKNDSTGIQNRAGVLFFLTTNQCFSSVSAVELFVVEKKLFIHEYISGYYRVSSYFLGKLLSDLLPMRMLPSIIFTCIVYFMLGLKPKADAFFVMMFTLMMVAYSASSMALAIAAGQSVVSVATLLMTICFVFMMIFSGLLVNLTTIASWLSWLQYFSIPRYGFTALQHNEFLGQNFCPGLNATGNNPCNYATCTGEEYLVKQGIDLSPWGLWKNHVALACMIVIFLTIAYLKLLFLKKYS
Method: as §2, §3, §4, §5, §6, §7

T1 sequence (P08183 whole entry): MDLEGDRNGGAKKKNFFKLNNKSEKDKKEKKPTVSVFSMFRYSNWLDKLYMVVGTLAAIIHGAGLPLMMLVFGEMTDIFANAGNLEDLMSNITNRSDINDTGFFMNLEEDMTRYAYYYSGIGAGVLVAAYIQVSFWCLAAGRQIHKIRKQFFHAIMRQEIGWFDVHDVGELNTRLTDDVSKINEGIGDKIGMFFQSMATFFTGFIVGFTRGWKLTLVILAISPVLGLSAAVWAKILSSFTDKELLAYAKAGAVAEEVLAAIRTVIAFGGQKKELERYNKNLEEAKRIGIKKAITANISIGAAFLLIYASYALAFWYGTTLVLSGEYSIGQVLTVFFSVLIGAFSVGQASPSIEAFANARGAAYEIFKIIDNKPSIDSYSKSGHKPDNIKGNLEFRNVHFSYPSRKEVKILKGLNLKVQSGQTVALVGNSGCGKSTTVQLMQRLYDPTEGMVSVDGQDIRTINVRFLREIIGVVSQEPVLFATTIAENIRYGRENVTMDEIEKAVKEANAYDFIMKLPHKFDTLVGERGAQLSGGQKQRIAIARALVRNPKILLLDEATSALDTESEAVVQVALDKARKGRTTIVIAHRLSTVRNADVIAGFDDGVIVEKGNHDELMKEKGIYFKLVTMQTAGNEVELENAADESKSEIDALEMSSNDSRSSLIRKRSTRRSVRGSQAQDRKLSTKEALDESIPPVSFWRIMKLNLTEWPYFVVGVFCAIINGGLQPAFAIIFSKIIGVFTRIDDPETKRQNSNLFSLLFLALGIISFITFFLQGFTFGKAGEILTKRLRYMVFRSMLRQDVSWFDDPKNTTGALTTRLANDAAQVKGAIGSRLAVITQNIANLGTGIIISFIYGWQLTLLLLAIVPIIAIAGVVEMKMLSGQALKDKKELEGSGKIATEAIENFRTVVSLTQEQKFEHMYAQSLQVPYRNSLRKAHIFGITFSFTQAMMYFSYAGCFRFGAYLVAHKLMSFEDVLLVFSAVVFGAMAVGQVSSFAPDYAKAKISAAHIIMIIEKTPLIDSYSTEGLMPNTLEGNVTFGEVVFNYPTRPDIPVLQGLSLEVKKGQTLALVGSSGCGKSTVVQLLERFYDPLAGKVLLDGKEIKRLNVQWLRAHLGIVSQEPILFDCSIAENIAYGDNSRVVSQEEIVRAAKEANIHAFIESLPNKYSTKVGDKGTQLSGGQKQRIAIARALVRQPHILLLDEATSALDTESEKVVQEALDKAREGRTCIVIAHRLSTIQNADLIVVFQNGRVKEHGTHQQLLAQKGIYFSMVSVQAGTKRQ

SMILES	IC50 [1] [nM]	Papp at 2 h, 1 μM [2] [×10⁻⁶ cm/s]	efflux ratio at 2 h, 1 μM (P-gp (MDR1))	efflux ratio at 2 h, 1 μM (BCRP (hBCRP))
Cn1c(Nc2ccc(C3CC3)cc2Cl)c2c(cc1=O)CCN(OCCO)C2=O [Example 19, 8-((2-chloro-4-cyclopropylphenyl)amino)-2-(2-hydroxyethoxy)-7-methyl-3,4-dihydro-2,7-naphthyridine-1,6(2H,7H)-dione]	29	25.9	3.3	1.5
Cn1c(Nc2ccc(Br)cc2F)c2c(c(Cl)c1=O)CCN(OCCO)C2=O [Example 37, 8-((4-bromo-2-fluorophenyl)amino)-5-chloro-2-(2-hydroxyethoxy)-7-methyl-3,4-dihydro-2,7-naphthyridine-1,6(2H,7H)-dione]	116	28.6	2.7	3.3
Cn1c(Nc2ccc(Br)cc2Cl)c2c(cc1=O)CCN(OCCO)C2=O [Example 10, 8-((4-bromo-2-chlorophenyl)amino)-2-(2-hydroxyethoxy)-7-methyl-3,4-dihydro-2,7-naphthyridine-1,6(2H,7H)-dione]	58	26.5	6.7	6.3
CC(C)ON1CCc2cc(=O)n(C)c(Nc3ccc(I)cc3F)c2C1=O [Example 27, 8-((2-fluoro-4-iodophenyl)amino)-2-isopropoxy-7-methyl-3,4-dihydro-2,7-naphthyridine-1,6(2H,7H)-dione]	142	25.1	0.9	1.4
Cn1c(Nc2ccc(I)cc2F)c2c(cc1=O)CCN(C1CC1)C2=O [Example 5, 2-cyclopropyl-8-((2-fluoro-4-iodophenyl)amino)-7-methyl-3,4-dihydro-2,7-naphthyridine-1,6(2H,7H)-dione]	20	27.8	1.6	1
CSc1ccc(Nc2c3c(cc(=O)n2C)CCN(C2CC2)C3=O)c(F)c1 [Example 4, 2-cyclopropyl-8-((2-fluoro-4-(methylthio)phenyl)amino)-7-methyl-3,4-dihydro-2,7-naphthyridine-1,6(2H,7H)-dione]	74	26.1	1.3	1.1
Cn1c(Nc2ccc(I)cc2F)c2c(c(Cl)c1=O)CCN(OCCO)C2=O [Example 38, 5-chloro-8-((2-fluoro-4-iodophenyl)amino)-2-(2-hydroxyethoxy)-7-methyl-3,4-dihydro-2,7-naphthyridine-1,6(2H,7H)-dione]	7	24.6	4.5	2.9
CCc1ccc(Nc2c3c(c(C)c(=O)n2C)CCN(OCCO)C3=O)c(F)c1 [Example 44, 8-((4-ethyl-2-fluorophenyl)amino)-2-(2-hydroxyethoxy)-5,7-dimethyl-3,4-dihydro-2,7-naphthyridine-1,6(2H,7H)-dione]	13	33	1.1	2.7
CSc1ccc(Nc2c3c(cc(=O)n2C)CCNC3=O)c(F)c1 [Example 50, 8-((2-fluoro-4-(methylthio)phenyl)amino)-7-methyl-3,4-dihydro-2,7-naphthyridine-1,6(2H,7H)-dione trifluoroacetate]	12	36.7	1.2	1.3
Cn1c(Nc2ccc(Br)cc2F)c2c(c(F)c1=O)CCN(OCCO)C2=O [Example 39, 8-((4-bromo-2-fluorophenyl)amino)-5-fluoro-2-(2-hydroxyethoxy)-7-methyl-3,4-dihydro-2,7-naphthyridine-1,6(2H,7H)-dione]	62	32.3	3.9	3.2
CCc1ccc(Nc2c3c(cc(=O)n2C)CCN(OCCO)C3=O)c(Cl)c1 [Example 23, 8-((2-chloro-4-ethylphenyl)amino)-2-(2-hydroxyethoxy)-7-methyl-3,4-dihydro-2,7-naphthyridine-1,6(2H,7H)-dione]	26	30.4	3.2	2
C[C@H](O)CON1CCc2cc(=O)n(C)c(Nc3ccc(I)cc3F)c2C1=O [Example 31, (S)-8-((2-fluoro-4-iodophenyl)amino)-2-(2-hydroxypropoxy)-7-methyl-3,4-dihydro-2,7-naphthyridine-1,6(2H,7H)-dione]	1	24.8	5.3	4.4
CCc1ccc(Nc2c3c(c(C)c(=O)n2C)CCNC3=O)c(F)c1 [Example 56, 8-((4-ethyl-2-fluorophenyl)amino)-5,7-dimethyl-3,4-dihydro-2,7-naphthyridine-1,6(2H,7H)-dione]	56	32.1	0.8	1.1
